In patent publication US8557816B2, “Aurora kinase modulators and method of use” (Amgen Inc., priority 2007, dated 2013):

Assays:
AuroraB = biological target: T1, AuroraB (Homo sapiens, UniProt Q96GD4); assay: AuroraB Homogeneous Time Resolved Fluorescent (HTRF) kinase assay; assay type: biochemical; settings: average; read-out: AurB_IC50_IP (uM Avg)
T1 construct: 20 μL of AuroraB FL H is for a final volume of 41 μL; His
Outline: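 Full-length His-tagged kinase phosphorylates biotinylated Histone H3 (0.1 μM final) with ATP in pH 7.5 HEPES containing MgCl, MnCl, DTT and BSA for about 90 min. EDTA-containing detection mix with SA-APC and Eu-anti-phosphoHistone H3 then equilibrated about 60 min; HTRF read with 320 nm excitation, emissions 615/655 nm.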

AuroraA-TPX2 = biological target: T2, AuroraA-TPX2 (Homo sapiens, UniProt O14965); assay: AuroraA-TPX2 Homogeneous Time Resolved Fluorescent (HTRF) kinase assay; assay type: biochemical; settings: average; read-out: AurA_IC50_IP (uM Avg)
T2 construct: 20 μL of AuroraA-TPX2 KD GST for a final volume of about 41 μL; GST
T2 sequence (O14965 133-383 limits assumed): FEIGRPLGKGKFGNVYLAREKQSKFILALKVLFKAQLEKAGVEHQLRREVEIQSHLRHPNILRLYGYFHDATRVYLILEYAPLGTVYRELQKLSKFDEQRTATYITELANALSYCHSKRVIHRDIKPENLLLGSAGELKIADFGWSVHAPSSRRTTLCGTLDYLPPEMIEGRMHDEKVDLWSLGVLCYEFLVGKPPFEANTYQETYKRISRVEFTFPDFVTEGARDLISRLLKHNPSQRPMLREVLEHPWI
T2 sequence (Q9ULW0 1-43 partner limits assumed): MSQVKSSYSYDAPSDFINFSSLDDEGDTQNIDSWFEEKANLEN
Outline: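 HTRF read-out (Eu 615 nm to APC 655 nm) of phosphorylated biotin-PLK, detected with 0.02 nM europium anti-phosphoPLK antibody and 0.0005 mg/mL SA-APC after overnight equilibration.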

T1 sequence (Q96GD4 whole entry): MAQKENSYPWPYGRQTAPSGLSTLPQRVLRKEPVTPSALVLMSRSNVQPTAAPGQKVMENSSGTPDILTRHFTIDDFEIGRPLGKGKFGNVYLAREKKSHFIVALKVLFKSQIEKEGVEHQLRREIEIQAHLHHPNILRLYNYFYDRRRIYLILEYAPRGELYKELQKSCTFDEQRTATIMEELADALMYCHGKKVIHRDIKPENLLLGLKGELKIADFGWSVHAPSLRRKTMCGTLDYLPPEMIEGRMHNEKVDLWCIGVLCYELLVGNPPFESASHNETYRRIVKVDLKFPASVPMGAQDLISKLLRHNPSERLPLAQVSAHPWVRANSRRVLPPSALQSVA

Structure (SMILES)	IC50 (AuroraB) [µM]	IC50 (AuroraA-TPX2) [µM]
Clc1ccc(-c2nnc(Nc3ccc(Sc4ccnc5[nH]ncc45)cc3)c3ccccc23)cc1 [compound 359, N-(4-(1H-pyrazolo[3,4-b]pyridin-4-ylthio)phenyl)-4-(4-chlorophenyl)phthalazin-1-amine]	0.017	0.012
CNC(=O)c1cc(Oc2ccc(Nc3nnc(-c4ccc(Cl)cc4)c4ccccc34)cc2)ccn1 [compound 361, 4-(4-(4-(4-chlorophenyl)phthalazin-1-ylamino)phenoxy)-N-methylpicolinamide]	0.173	0.245
c1ccc(-c2nnc(Nc3ccc(Sc4ccnc5[nH]cnc45)cc3)c3ccccc23)cc1 [compound 362, N-(4-(3H-imidazo[4,5-b]pyridin-7-ylthio)phenyl)-4-phenylphthalazin-1-amine]	0.092	0.066
Clc1ccc(-c2nnc(Nc3ccc(Sc4ccnc5[nH]cnc45)cc3)c3ccccc23)cc1 [compound 363, N-(4-(3H-imidazo[4,5-b]pyridin-7-ylthio)phenyl)-4-(4-chlorophenyl)phthalazin-1-amine]	0.036	0.019
COc1ccc2c(Sc3ccc(Nc4nnc(-c5ccc(Cl)cn5)c5ccccc45)cc3)ccnc2c1 [compound 364, 4-(5-chloropyridin-2-yl)-N-(4-(7-methoxyquinolin-4-ylthio)phenyl)phthalazin-1-amine]	0.073	0.036
Cc1csc(-c2nnc(Nc3ccc(Sc4ccnc5ccsc45)cc3)c3ccccc23)c1 [compound 366, 4-(4-methylthiophen-2-yl)-N-(4-(thieno[3,2-b]pyridin-7-ylthio)phenyl)phthalazin-1-amine]	0.051	0.037
COc1cnc2c(Oc3ccc(Nc4nnc(-c5ccccc5)c5c4CCC5)cc3)ccnc2c1 [compound 367, N-(4-(7-methoxy-1,5-naphthyridin-4-yloxy)phenyl)-4-phenyl-6,7-dihydro-5H-cyclopenta[d]pyridazin-1-amine]	0.057	0.028
COc1ccc2c(Oc3ccc(Nc4nnc(-c5ccccc5)c5c4CCC5)cc3)ccnc2c1 [compound 368, N-(4-(7-methoxyquinolin-4-yloxy)phenyl)-4-phenyl-6,7-dihydro-5H-cyclopenta[d]pyridazin-1-amine]	0.063	0.04
c1ccc(-c2nnc(Nc3ccc(Oc4ccnc5ccnn45)cc3)c3ccccc23)cc1 [compound 370, 4-phenyl-N-(4-(pyrazolo[1,5-a]pyrimidin-7-yloxy)phenyl)phthalazin-1-amine]	0.594	0.505
COc1cnc2c(Oc3ccc(Nc4nnc(-c5ccc(Cl)cc5)c5c4CCC5)cc3)ccnc2c1 [compound 411]	> 25	> 25
COc1ccc2c(Oc3ccc(Nc4nnc(-c5ccc(Cl)cc5)c5c4CCC5)cc3)ccnc2c1 [compound 412]	> 25	> 25
COc1cnc2c(Sc3ccc(Nc4nnc(-c5ccccc5)c5ccccc45)cn3)ccnc2c1 [compound 413]	0.031	0.09
COc1ccc2nccc(Sc3ccc(Nc4nnc(-c5cccc(C)n5)c5ccccc45)cc3)c2n1 [compound 419]	0.026	0.309
COc1cnc2c(Sc3ccc(Nc4nnc(-c5cccc(C)n5)c5ccccc45)cc3)ccnc2c1 [compound 420]	0.015	0.072
COc1cc2c(Oc3ccc(Nc4nnc(-c5ccccc5)c5ccccc45)cc3)ccnc2cc1O [compound 422]	0.013	0.029
Cc1csc(-c2nnc(Nc3ccc(Sc4ccnc5ccncc45)cc3)c3ccccc23)c1 [compound 428]	0.013	0.032
COCCOc1ccc2c(Sc3ccc(Nc4nnc(-c5ccc(Cl)cc5)c5ccccc45)cc3)ccnc2c1 [compound 431]	0.018	0.012
COCCOc1ccc2nccc(Sc3ccc(Nc4nnc(-c5ccc(Cl)cc5)c5ccccc45)cc3)c2c1 [compound 434]	0.109	0.109
COc1cc(OC)c2c(Oc3ccc(Nc4nnc(-c5ccc(Cl)cc5)c5ccccc45)cc3)ccnc2c1 [compound 435]	0.121	0.038
COc1cc(OC)c2c(Sc3ccc(Nc4nnc(-c5ccc(Cl)cc5)c5ccccc45)cc3)ccnc2c1 [compound 436]	0.675	0.401

Stronger by IC50 (AuroraB), values ahead:

IC50 (AuroraB) [µM]	IC50 (AuroraA-TPX2) [µM]	Structure (SMILES)
0.012	0.036	COc1cnc2c(Sc3ccc(Nc4nnc(-c5ccc(F)cc5)c5ccccc45)cc3)ccnc2c1 [compound 356, 4-(4-fluorophenyl)-N-(4-(7-methoxy-1,5-naphthyridin-4-ylthio)phenyl)phthalazin-1-amine]
0.012	0.029	COc1ccc(-c2nnc(Nc3ccc(Sc4ccnc5cc(OC)cnc45)cc3)c3ccccc23)cc1 [compound 357, N-(4-(7-methoxy-1,5-naphthyridin-4-ylthio)phenyl)-4-(4-methoxyphenyl)phthalazin-1-amine]
0.012	0.043	Oc1cnc2c(Sc3ccc(Nc4nnc(-c5ccccc5)c5ccccc45)cc3)ccnc2c1 [compound 415]
0.012	0.028	COc1cc2ncnc(Sc3ccc(Nc4nnc(-c5ccc(Cl)cc5)c5ccccc45)cc3)c2cc1OC [compound 418]
0.012	0.046	Cc1csc(-c2nnc(Nc3ccc(Oc4ccnc5ccncc45)cc3)c3ccccc23)c1 [compound 429]
0.012	0.122	Cc1ccc(-c2nnc(Nc3ccc(Oc4ccnc5ccncc45)cc3)c3ccccc23)nc1 [compound 432]
0.011	0.016	Clc1ccc(-c2nnc(Nc3ccc(Sc4ccnc5ccccc45)cc3)c3ccccc23)nc1 [compound 365, 4-(5-chloropyridin-2-yl)-N-(4-(quinolin-4-ylthio)phenyl)phthalazin-1-amine]
0.009	0.025	COc1cc2nccc(Sc3ccc(Nc4nnc(-c5ccc(Cl)cc5)c5ccccc45)cc3)c2cn1 [compound 354, 4-(4-chlorophenyl)-N-(4-(7-methoxy-1,6-naphthyridin-4-ylthio)phenyl)phthalazin-1-amine]
0.008	0.058	COc1cc2nccc(Sc3ccc(Nc4nnc(-c5ccccc5)c5ccccc45)cc3)c2cn1 [compound 353, N-(4-(7-methoxy-1,6-naphthyridin-4-ylthio)phenyl)-4-phenylphthalazin-1-amine]
0.008	0.142	Cc1cccc(-c2nnc(Nc3ccc(Sc4ccnc5cccnc45)cc3)c3ccccc23)n1 [compound 421]
0.008	0.1	Clc1ccc(-c2nnc(Nc3ccc(Sc4ccnc5ccncc45)cc3)c3ccccc23)cc1 [compound 426]
0.007	0.055	c1ccc2c(-c3ccc4c(c3)OCO4)nnc(Nc3ccc(Sc4ccnc5ccncc45)cc3)c2c1 [compound 427]
0.007	0.084	Clc1ccc(-c2nnc(Nc3ccc(Sc4ccnc5ccncc45)cc3)c3ccccc23)nc1 [compound 430]
0.006	0.241	c1ccc(-c2nnc(Nc3ccc(Sc4ccnc5ccsc45)cc3)c3ccccc23)cc1 [compound 355, 4-phenyl-N-(4-(thieno[3,2-b]pyridin-7-ylthio)phenyl)phthalazin-1-amine]
0.006	0.049	CCc1cc(-c2ccc(C)cc2)nnc1Nc1ccc(Sc2ccnc3cccnc23)cc1 [compound 358, N-(4-(1,5-naphthyridin-4-ylthio)phenyl)-4-ethyl-6-p-tolylpyridazin-3-amine]
0.004	0.055	c1ccc2c(-c3ccc4c(c3)OCO4)nnc(Nc3ccc(Oc4ccnc5ccncc45)cc3)c2c1 [compound 424]
0.004	0.056	Cc1ccc(-c2nnc(Nc3ccc(Sc4ccnc5ccncc45)cc3)c3ccccc23)nc1 [compound 433]
0.003	0.008	N#Cc1cc2nccc(Sc3ccc(Nc4nnc(-c5ccc(Cl)cc5)c5ccccc45)cc3)c2s1 [compound 351, 7-(4-(4-(4-chlorophenyl)phthalazin-1-ylamino)phenylthio)thieno[3,2-b]pyridine-2-carbonitrile]
0.003	0.098	Cc1ccc(-c2nnc(Nc3ccc(Oc4ccnc5cccnc45)cc3)c3ccccc23)cc1N [compound 416]
0.003	0.047	Clc1ccc(-c2nnc(Nc3ccc(Oc4ccnc5ccncc45)cc3)c3ccccc23)cc1 [compound 423]
0.003	0.171	c1ccc(-c2nnc(Nc3ccc(Sc4ccnc5ccncc45)cc3)c3ccccc23)cc1 [compound 425]
0.002	0.009	c1ccc(-c2nnc(Nc3ccc(Oc4ccnc5cc(-c6cn[nH]c6)ccc45)cc3)c3ccccc23)cc1 [compound 417]
0.001	0.074	c1ccc(-c2nnc(Nc3ccc(Sc4ccnc5[nH]ncc45)cc3)c3ccccc23)cc1 [compound 352, N-(4-(1H-pyrazolo[3,4-b]pyridin-4-ylthio)phenyl)-4-phenylphthalazin-1-amine]
